We go through 2 compounds from article PMC4208851, “Development of Nanoparticles Incorporating a Novel Liposomal Membrane Destabilization Peptide for Efficient Release of Cargos into Cancer Cells” (PLoS ONE, 2014).

As a reminder, the pIC50 is −log10 of the IC50, conventionally taken in molar units.

pIC50: −log10 of the molar value. Where no end group is shown, it is not given here.

This experiment addresses T1, γ-secretase (Homo sapiens, UniProt P49768).
T1 construct: The solubilized membrane preparations of A549 (16.5 µg total protein) were incubated with 100 µM LMDP or LMDP-lipo; endogenous in cells; host or cells: A549 cells, CHAPSO-solubilized membrane fraction
Nature of the experiment: Cleavage of fluorescence-quenching substrate peptide probe by γ-secretase in solubilized A549 membrane fraction (competitive inhibition / inhibitor test). The class given is biochemical. As for the experimental part: The membrane fraction was prepared according to previous reports. All procedures were carried out on ice. Cultured HeLa cells, A549 cells, MCF-7 cells and HUEhT-2 cells (about 1×10^8 cells) were pelleted. Cells were resuspended in a buffer containing 20 mM Hepes, pH 7.5, 50 mM KCl, 2 mM EGTA, and protease inhibitor cocktail, Complete Mini (Roche Applied Science), and homogenized using 15 strokes of a Dounce homogenizer with a tight pestle. The cellular homogenates were centrifuged at 800 × g for 10 min and rehomogenized as above. […] The total protein concentration was determined with a BCA Protein Assay Kit (Thermo scientific).
To measure γ-secretase activity, solubilized membrane preparations ([…] total protein) were incubated with eight µM fluorescence-quenching peptide substrate at 37°C overnight and centrifuged at 16,100 × g for 15 min. The fluorescence of supernatants was measured by Plate Infinite M200 (TECAN) with an excitation wavelength of 355 nm and emission wavelength of 440 nm.
To study LMDP cleavage by γ-secretase, the competitive inhibitory effect of LMDP or LMDP-lipo on the cleavage of the peptide substrate (the same as that used in 2.2) was evaluated. […] Then, the fluorescence intensity was measured as described in 2.2. […]

`C[C@H](NC(=O)Cc1cc(F)cc(F)c1)C(=O)N[C@H](C(=O)OC(C)(C)C)c1ccccc1` [DAPT, N-[N-(3,5-Difluorophenacetyl)-L-alanyl]-S-phenylglycine t-butyl ester]: the “Inhibition of γ-secretase activity” value (A549 membrane fraction preincubated with DAPT 37°C 30 min, then substrate peptide probe 37°C overnight (Fig. S3)) is recorded as “about 60%”.
Regarding LHLMYVAAAAFVLLFFVGCGVLLSRKRRR [LMDP], for the setting “A549 solubilized membrane 16.5 µg protein, 5 µM peptide substrate, 0-100 µM LMDP, 37°C overnight, fluorescence ex 355/em 440 nm, n = 3, read-out: IC50, competitive inhibition of cleavage of fluorescent substrate peptide probe”, the pIC50 was 4.54.
